In patent US20130274174A1, “THERAPEUTIC COMBINATION OF DAPTOMYCIN AND PROTEIN SYNTHESIS INHIBITOR ANTIBIOTIC, AND METHODS OF USE” (priority 2011, published 2013):
Like-named read-outs stand apart in the source and are kept apart here.

System: S. aureus MW2 (NRS123)
Assay: microbe, parasite or virus in culture
Type: cell-based, Staphylococcus aureus
Settings: Staphylococcus aureus
Protocol: S. aureus strains MW2 (NARSA collection clinical MRSA isolate, NRS123) and ATCC 33591 (MRSA strain from the American Type Culture Collection) were cultured on Mueller-Hinton II cation adjusted (MHA) medium in 90×90 mm square petri dishes. MHA containing ¼ of the MIC value of TR-700, TR-705, LZD, TIA, CLI, TET, or VAN, TMP/SMX throughout the plate and a continuous linear gradient of DAP across the plate was used to passage MW2. ATCC 33591 was passaged with ¼ of the MIC of a subset of these drugs (TR-700, TMP/SMX, and VAN). A DAP-only control passage group was included for both strains. DAP gradients were created by pouring two layers of media as previously described (Bryson, V., et al. 1952. Microbial selection. Science 116:45-51; Locke, J. B., et al., 2009. Antimicrob. Agents Chemother. 53:5265-5274). Following each passage the leading edge of growth (i.e., most resistant cells) was resuspended in phosphate buffered saline (PBS) to an absorbance of 0.30 OD600 and a 100 μl aliquot containing ˜3.0×10^7 CFU (colony-forming units) was spread on to the proceeding passage plate. The starting maximal DAP concentration was 2 μg/ml and was increased in two-fold increments when the leading edge of growth surpassed the half way point on the plate. A glycerol stock was made from the total cell population for each culture condition for each passage. Thirty serial passages were completed for each treatment group.

[1] = NRS123, passage 5, selection group DAP
[2] = NRS123, passage 5, selection group DAP + CLI
[3] = NRS123, passage 5, selection group DAP + LZD
[4] = NRS123, passage 5, selection group DAP + TET
[5] = NRS123, passage 5, selection group DAP + TIA
[6] = NRS123, passage 5, selection group DAP + TMP/SMX
[7] = NRS123, passage 5, selection group DAP + TR-700
[8] = NRS123, passage 5, selection group DAP + TR-705
[9] = NRS123, passage 5, selection group DAP + VAN
[10] = NRS123, passage 10, selection group DAP
[11] = NRS123, passage 10, selection group DAP + CLI
[12] = NRS123, passage 10, selection group DAP + LZD
[13] = NRS123, passage 10, selection group DAP + TET
[14] = NRS123, passage 10, selection group DAP + TIA
[15] = NRS123, passage 10, selection group DAP + TMP/SMX
[16] = NRS123, passage 10, selection group DAP + TR-700
[17] = NRS123, passage 10, selection group DAP + TR-705
[18] = NRS123, passage 10, selection group DAP + VAN
[19] = NRS123, passage 15, selection group DAP
[20] = NRS123, passage 15, selection group DAP + CLI
[21] = NRS123, passage 15, selection group DAP + LZD
[22] = NRS123, passage 15, selection group DAP + TET
[23] = NRS123, passage 15, selection group DAP + TIA
[24] = NRS123, passage 15, selection group DAP + TMP/SMX
[25] = NRS123, passage 15, selection group DAP + TR-700
[26] = NRS123, passage 15, selection group DAP + TR-705
[27] = NRS123, passage 15, selection group DAP + VAN
[28] = NRS123, passage 20, selection group DAP
[29] = NRS123, passage 20, selection group DAP + CLI
[30] = NRS123, passage 20, selection group DAP + LZD
[31] = NRS123, passage 20, selection group DAP + TET
[32] = NRS123, passage 20, selection group DAP + TIA
[33] = NRS123, passage 20, selection group DAP + TMP/SMX
[34] = NRS123, passage 20, selection group DAP + TR-700
[35] = NRS123, passage 20, selection group DAP + TR-705
[36] = NRS123, passage 20, selection group DAP + VAN
[37] = NRS123, passage 25, selection group DAP
[38] = NRS123, passage 25, selection group DAP + CLI
[39] = NRS123, passage 25, selection group DAP + LZD
[40] = NRS123, passage 25, selection group DAP + TET
[41] = NRS123, passage 25, selection group DAP + TIA
[42] = NRS123, passage 25, selection group DAP + TMP/SMX
[43] = NRS123, passage 25, selection group DAP + TR-700
[44] = NRS123, passage 25, selection group DAP + TR-705
[45] = NRS123, passage 25, selection group DAP + VAN
[46] = NRS123, passage 30, selection group DAP
[47] = NRS123, passage 30, selection group DAP + CLI
[48] = NRS123, passage 30, selection group DAP + LZD
[49] = NRS123, passage 30, selection group DAP + TET
[50] = NRS123, passage 30, selection group DAP + TIA
[51] = NRS123, passage 30, selection group DAP + TMP/SMX
[52] = NRS123, passage 30, selection group DAP + TR-700
[53] = NRS123, passage 30, selection group DAP + TR-705
[54] = NRS123, passage 30, selection group DAP + VAN
[55] = NRS123, read-out: DAP MIC by the end of the experiment (selection of DAP^ns strains), MW2, passaged with DAP alone or with co-selecting agent at ¼ MIC, CLSI breakpoint

Measured: MIC

CCC[C@@H]1C[C@@H](C(=O)N[C@@H]([C@H]2O[C@H](SC)[C@H](O)[C@@H](O)[C@H]2O)[C@H](C)Cl)N(C)C1 [CLI, clindamycin]
0.0625 µg/mL: [2] | [3] | [8] | [11] | [12] | [13] | [18] | [20] | [23] | [26] | [28] | [29] | [32] | [35] | [38] | [39] | [41] | [44] | [47] | [48] | [54]
0.125 µg/mL: NRS123, passage 0, NRS123 WT | [1] | [4] | [5] | [6] | [7] | [9] | [10] | [14] | [15] | [16] | [17] | [19] | [21] | [24] | [25] | [27] | [30] | [33] | [34] | [36] | [37] | [42] | [43] | [45] | [46] | [50] | [51] | [52] | [53]
> 1 µg/mL: [55]
0.0313 µg/mL: [22] | [31] | [40] | [49]

C=C[C@]1(C)C[C@@H](OC(=O)CSCCN(CC)CC)[C@]2(C)[C@H](C)CC[C@]3(CCC(=O)[C@H]32)[C@@H](C)[C@@H]1O [TIA, tiamulin]
1 µg/mL: [2] | [3] | [7] | [8] | [11] | [12] | [15] | [16] | [21] | [24] | [25] | [30] | [34] | [43]
> 1 µg/mL: [55]
0.5 µg/mL: NRS123, passage 0, NRS123 WT | [1] | [4] | [5] | [6] | [9] | [10] | [13] | [14] | [17] | [18] | [19] | [20] | [23] | [26] | [27] | [28] | [29] | [32] | [33] | [35] | [36] | [38] | [41] | [42] | [44] | [45] | [48] | [50] | [51] | [52] | [53]
0.25 µg/mL: [22] | [31] | [37] | [39] | [40] | [46] | [47] | [49] | [54]
